Data on one molecule can be found in US6046231A, “Use of 4'-bromoflavone in a cancer chemopreventative composition and method” (The Board of Trustees of the University of Illinois, priority 1999, dated 2000).

SMILES strings stand for the structures. Where two headings read alike, the source gives them in different places.

One series deals with GST Yb (μ class). In words: Western blot of GST Yb (μ-type) expression in H4IIE cells. It is filed as cell-based, rat. To be noted: for GST Yb (μ) induction: H4IIE cells. As to the method: Western Blot Analysis Glutathione S-transferase Expression. Cultured H4IIE rat hepatoma cells were treated with test agent with various concentrations or various time points. […] Cells were harvested using SDS lysis buffer (20 mM Tris-Cl, pH 6.8, containing 0.4% SDS (w/v), 4% glycerol, 0.24 M β-mercaptoethanol, and 0.5% bromphenol) and the lysates were boiled for 5 minutes, then stored at -20° C. An aliquot of lysate was used for protein determination using a bicichoninic acid protein assay kit with BSA as a standard. Equivalent amounts of protein were electrophoresed by SDS-PAGE on precast 12.5% Tris-glycine acrylamide gels (Novex, San Diego, Calif.), then transferred to polyvinylidene difluoride (PDVF) membranes. Nonspecific binding sites were blocked with 10% nonfat dry milk and blotting was performed with goat polyclonal antirat GSTYa (α class) IgG or antirat, GSTYb (μ class) IgG and analyzed by alkaline phosphatase-conjugated antigoat IgG secondary antibody (Oxford Biomed Research, Inc.) and quantified using an AP 20 Alkaline Phosphatase Kit detection system (Oxford Biomed Research, Inc.).
Induction of Expression of Glutathione S-transferase Ya (α-type) and Yb (μ-type) in Cell Cultures. […] To date, the superfamily of mammalian cytosolic GST isozymes has been defined genetically to consist of four classes; α, μ, π, and θ, which differ in tissue-specificexpression and distribution, as well as substrate specificity. […] Cultured H4IIE cells were treated either with 10 μM of 4'-BF (FIG. 7B) or sulforaphane for 0, 2, 4, 8, 16, 24, and 48 hours for a time-dependent study, or with 0.16, 0.8, 4, 10, 20, and 50 μM of 4'-BF (FIG. 7A) or sulforaphane for 24 hr for a dose-dependent study (FIG. 7A). The expressions of two major detoxification isoforms of GSTs (GST Ya: α-type, and GST Yb: μ-type) mediated by 4'-BF or sulforaphane were investigated in H4EII rat hepatoma cells using Western blotting technique.
Background: Immunoblotting shows a protein as a band on a membrane.

Series [1] relates to pDTD-1097CAT construct (QR gene 5'-region), HepG2 cells. Put plainly: CAT expression in HepG2 cells transfected with pDTD-1097CAT. The note with it: 10 μM, 48 h; p<0.0001. Type of series: cell-based, human cells; rat QR gene. As to the method: Transcient Transfection Gene Expression Assay. Cultured HepG2 human hepatoma cells were transfected with three plasmid constructs (PDTD-1697CAT, XRE-CAT, ARE-CAT) containing various portions of the 5'-region of the QR gene fused to the CAT gene using the calcium phosphate precipitation method (J. Sambrook et al., Molecular cloning: A Laboratory Handbook, Ed. Chris Nolan, CHS Laboratory Press, 1989). After 4 hours of transfection, the cells were treated with 10% glycerol for 3 minutes and rinsed with PBS and switched to MEM, containing 100 units/ml penicillin G sodium, 100 units/ml streptomycin sulfate, nonessential amino acids, and 1 mM sodium pyruvate (Life Technologies Inc.) supplemented with 10% fetal bovine serum for 12-16 hours recovery. Then, test agents were added to the cells. After 48 hours of treatment with the test agents, cells were harvested with lysis buffer (Boehringer Mannheim Biochemical) and CAT protein expressions were assessed using a CAT ELISA kit (Boehringer Mannheim Biochemical). […] All data were expressed as mean +/- SD. […]
In particular, FIG. 1 illustrates quantitation of CAT expression in HepG2 cells transfected with QR-CAT constructs. […] CAT expression (ng CAT/mg protein) was determined using a CAT ELISA, and the ratio of CAT expression between treated and control cells was calculated (ratio=treated/control).

For the next series, the system named is cytochrome P4501A1. In words: Effect on DMBA-induced cytochrome P4501A1 activity in rat tissues. It is filed as in vivo, Sprague Dawley rat.
In the next series the test system is cytochrome P-4501A1. To be noted: cited from earlier work.

Experimental for cytochrome P4501A1: At 43 days of age, Sprague Dawley rats were placed on various experimental diets (Table 1) for 1 week prior to administration of a single (i.g.) dose of DMBA (15 mg). Animals then were weighed and sacrificed by CO2 asphyxiation. Tissues (livers and mammary glands) were collected, rinsed with saline, frozen in liquid nitrogen, and stored at -80° C. until analysis. Individual tissues were homogenized in 0.05 M Tris-HCl buffer (pH 7.5) containing 0.25 M sucrose. Cytosolic and microsomal fractions were obtained through differential centrifugation. Dicumarol-sensitive QR activity was measured as described above using 50 μl of suitably diluted cytosol supernatants (in duplicate). Cytochrome P4501A1-mediated EROD activities were determined as described previously in R. Poul et al. Anal. Biochem., 107, pp. 265-275 (1980) and S. Sharma et al., Cancer Res., 54, pp. 5848-5844 (1994), with slight modifications using suitably diluted microsomal protein. Enzyme activities were expressed as nmol/mg protein/min. Protein content was determined using Bradford reagent with BSA as standard, and data were presented as mean ±SE and analyzed using Student's t test (n=5).

Regarding `O=c1cc(-c2ccc(Br)cc2)oc2ccccc12` [4'-Bromoflavone], in the series on GST Yb (μ class) (10 μM, 0-48 h), the “maximum induction time, GST Yb” value was 16 to 24 h. In addition, the “maximum induction concentration, GST Yb” value in the series with GST Yb (μ class) (0.16-50 μM, 24 h) was in the range of 10 to 20 µM. The “GST Yb (μ) induction” value is on record as “effectively induced” with GST Yb (μ class) and “induced by 4'-BF in a time, dose-dependent manner” in the series on GST Yb (μ class) (listed as 4'-BF). In addition, the “CAT expression, pDTD-1097CAT” value in series [1] was “significantly (p<0.0001) induced”. The “cytochrome P4501A1 activity vs control (basal diet)” value with cytochrome P4501A1 (liver and mammary gland, each treatment regimen) is given as “significantly induced”. Further, the “DMBA-induced cytochrome P4501A1 activity” value in the series with cytochrome P4501A1 (liver or mammary gland, in addition to DMBA) is listed as “did not significantly alter”. In addition, the “levels of cytochrome P-4501A1” value in the series on cytochrome P-4501A1 was “significantly increase”; in the series with cytochrome P-4501A1 (listed as 4'-bromoflavone) it was “phase I induction”.
